ChEMBL document CHEMBL1133082, “Adenosine kinase inhibitors. 2. Synthesis, enzyme inhibition, and antiseizure activity of diaryltubercidin analogues” (J Med Chem, 2000)

Key:
Adenosine kinase = Adenosine kinase (Homo sapiens, UniProt P55263); test: Inhibition of recombinant human adenosine kinase
Rattus norvegicus [1] = test: Tested for inhibition of MES-induced seizures in rat after ip administration of 5 mg/kg; assay type: functional; conditions: route intraperitoneal
Rattus norvegicus [2] = test: Intraperitoneal effective dose required for inhibition of MES-induced seizures in rat; assay type: functional; conditions: ip

Chain of Adenosine kinase (P55263 whole entry): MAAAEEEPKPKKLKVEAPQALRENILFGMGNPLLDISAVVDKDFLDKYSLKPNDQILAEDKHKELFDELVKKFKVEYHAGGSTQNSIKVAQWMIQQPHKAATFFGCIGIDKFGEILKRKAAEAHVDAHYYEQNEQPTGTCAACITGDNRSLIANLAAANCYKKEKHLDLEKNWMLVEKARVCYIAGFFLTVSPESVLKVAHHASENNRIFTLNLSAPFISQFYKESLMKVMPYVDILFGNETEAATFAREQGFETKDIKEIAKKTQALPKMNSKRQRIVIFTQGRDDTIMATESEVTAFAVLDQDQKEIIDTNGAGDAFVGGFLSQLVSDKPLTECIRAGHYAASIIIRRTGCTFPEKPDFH

## C[C@H]1O[C@@H](n2cc(-c3ccccc3)c3c(NCc4ccccc4)ncnc32)[C@H](O)[C@@H]1O
Adenosine kinase
  IC50: 30 nM

## C[C@H]1O[C@@H](n2cc(I)c3c(NCc4ccccc4)ncnc32)[C@H](O)[C@@H]1O
Adenosine kinase
  IC50: 800 nM

## C[C@H]1O[C@@H](n2cc(-c3ccccc3)c3c(Nc4ccc(C#N)cc4)ncnc32)[C@H](O)[C@@H]1O
Adenosine kinase
  IC50: 14 nM
Rattus norvegicus [1]
  inhibition in vivo at 5 mg/kg: 87%

## OC[C@H]1O[C@@H](n2cc(-c3ccccc3)c3c(Nc4ccccc4)ncnc32)C[C@@H]1O
Adenosine kinase
  IC50: 300 nM

## C[C@H]1O[C@@H](n2cc(-c3ccccc3)c3c(Nc4ccc(F)cc4)ncnc32)[C@H](O)[C@@H]1O
Rattus norvegicus [1]
  inhibition in vivo at 5 mg/kg: 73%

## OC[C@H]1O[C@@H](n2ccc3c(Nc4ccccc4)ncnc32)[C@H](O)[C@@H]1O
Adenosine kinase
  IC50: 1250 nM

## C[C@H]1O[C@@H](n2cc(-c3ccccc3)c3c(Nc4ccc(O)cc4)ncnc32)[C@H](O)[C@@H]1O
Adenosine kinase
  IC50: 1 nM
Rattus norvegicus [2]
  ED50: 5.8 mg/kg
Rattus norvegicus [1]
  inhibition in vivo at 5 mg/kg: 35%

## COc1ccc(Nc2ncnc3c2c(-c2ccccc2)cn3[C@@H]2O[C@H](C)[C@@H](O)[C@H]2O)cc1
Adenosine kinase
  IC50: 6 nM
Rattus norvegicus [2]
  ED50: 1 mg/kg
Rattus norvegicus [1]
  inhibition in vivo at 5 mg/kg: 93%
